Experimental data: ChEMBL document CHEMBL4387773, “Identification of potent, selective and orally bioavailable phenyl ((R)-3-phenylpyrrolidin-3-yl)sulfone analogues as RORγt inverse agonists” (Bioorg Med Chem Lett, 2019)

Key:
[1] = Stability in mouse liver microsomes assessed as parent compound remaining after 10 mins; type: ADME, Microsome; settings: liver microsomes, read-out: Stability
[2] = target: T1, Oxysterols receptor LXR-beta (Homo sapiens, UniProt P55055); test: Transactivation of human GAL4-fused LXRbeta expressed in African green monkey CV1 cells; type: cell-based
T1 sequence (P55055 whole entry): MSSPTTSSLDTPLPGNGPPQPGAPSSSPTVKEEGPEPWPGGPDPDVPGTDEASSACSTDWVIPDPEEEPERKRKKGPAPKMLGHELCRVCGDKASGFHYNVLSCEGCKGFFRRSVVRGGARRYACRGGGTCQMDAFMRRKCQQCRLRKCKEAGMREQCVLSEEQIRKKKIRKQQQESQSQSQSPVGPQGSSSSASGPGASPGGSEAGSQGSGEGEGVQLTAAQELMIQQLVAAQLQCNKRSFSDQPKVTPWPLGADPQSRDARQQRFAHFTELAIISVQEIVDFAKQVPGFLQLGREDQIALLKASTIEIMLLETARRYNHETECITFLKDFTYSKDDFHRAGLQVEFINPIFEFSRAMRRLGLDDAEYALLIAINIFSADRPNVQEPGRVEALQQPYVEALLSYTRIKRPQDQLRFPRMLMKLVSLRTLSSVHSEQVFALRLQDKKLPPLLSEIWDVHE

[3] = target: T2, Nuclear receptor ROR-gamma (Homo sapiens, UniProt P51449); test: Inverse agonist activity at human Gal4-fused RORgammat LBD (267 to 516 residues) expressed in human Jurkat cells measured after 18 hrs by steady-glo luciferase reporter gene assay; type: cell-based
T2 sequence (P51449 whole entry): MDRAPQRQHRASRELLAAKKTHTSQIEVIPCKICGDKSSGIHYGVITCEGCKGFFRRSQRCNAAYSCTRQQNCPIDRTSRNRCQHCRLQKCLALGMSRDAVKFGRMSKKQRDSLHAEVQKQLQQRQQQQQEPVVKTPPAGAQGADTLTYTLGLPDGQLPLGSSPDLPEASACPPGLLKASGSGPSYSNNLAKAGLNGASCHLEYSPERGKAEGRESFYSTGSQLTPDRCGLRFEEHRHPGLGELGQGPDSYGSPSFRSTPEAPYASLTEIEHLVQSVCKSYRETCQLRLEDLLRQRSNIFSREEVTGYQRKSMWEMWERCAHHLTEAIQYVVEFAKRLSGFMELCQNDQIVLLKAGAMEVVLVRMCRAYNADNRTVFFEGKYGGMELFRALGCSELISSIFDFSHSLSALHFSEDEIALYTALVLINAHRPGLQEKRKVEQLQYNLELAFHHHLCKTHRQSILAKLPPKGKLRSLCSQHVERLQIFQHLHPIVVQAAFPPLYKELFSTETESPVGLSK

[4] = target: T3, Nuclear receptor ROR-alpha (Homo sapiens, UniProt P35398); test: Inverse agonist activity at human Gal4-fused RORalpha LBD (272 to 556 residues) expressed in human Jurkat cells measured after 18 hrs by steady-glo luciferase reporter gene assay; type: cell-based
T3 sequence (P35398 whole entry): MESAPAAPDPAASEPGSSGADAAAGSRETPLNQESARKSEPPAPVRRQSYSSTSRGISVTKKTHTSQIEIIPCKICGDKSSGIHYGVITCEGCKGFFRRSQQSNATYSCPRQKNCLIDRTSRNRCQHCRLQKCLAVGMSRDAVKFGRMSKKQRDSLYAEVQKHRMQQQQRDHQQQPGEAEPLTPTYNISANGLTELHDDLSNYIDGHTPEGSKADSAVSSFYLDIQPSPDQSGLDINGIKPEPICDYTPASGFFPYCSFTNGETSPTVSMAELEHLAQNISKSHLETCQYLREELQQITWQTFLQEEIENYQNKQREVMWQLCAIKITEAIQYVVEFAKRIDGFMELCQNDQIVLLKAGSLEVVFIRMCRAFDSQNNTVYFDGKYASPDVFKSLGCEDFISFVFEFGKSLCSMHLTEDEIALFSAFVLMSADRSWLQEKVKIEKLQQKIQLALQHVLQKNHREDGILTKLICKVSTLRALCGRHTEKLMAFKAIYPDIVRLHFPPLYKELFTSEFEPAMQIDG

[5] = target: T4, Nuclear receptor subfamily 1 group I member 2 (Homo sapiens, UniProt O75469); test: Transactivation of PXR (unknown origin) expressed in human HepG2 cells; type: cell-based
T4 sequence (O75469 whole entry): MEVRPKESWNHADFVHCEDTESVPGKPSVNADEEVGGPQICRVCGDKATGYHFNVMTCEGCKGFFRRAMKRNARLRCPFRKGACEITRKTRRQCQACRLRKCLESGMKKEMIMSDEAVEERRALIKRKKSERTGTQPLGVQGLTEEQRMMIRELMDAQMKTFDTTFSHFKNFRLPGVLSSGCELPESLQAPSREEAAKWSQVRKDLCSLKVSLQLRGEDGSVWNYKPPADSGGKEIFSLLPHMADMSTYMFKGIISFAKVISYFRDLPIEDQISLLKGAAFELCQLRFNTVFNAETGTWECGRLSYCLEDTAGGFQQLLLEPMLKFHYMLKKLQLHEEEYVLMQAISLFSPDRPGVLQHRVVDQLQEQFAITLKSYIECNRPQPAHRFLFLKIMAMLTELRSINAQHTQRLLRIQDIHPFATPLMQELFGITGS

PXR = target: T5, PXR (Homo sapiens, UniProt O75469); test: (§1) Transactivation of PXR (unknown origin) expressed in human HepG2 cells assessed as maximum receptor activation response relative to control; type: cell-based; settings: human HepG2 cells that express PXR, read-out: %max
T5 sequence (O75469 whole entry): T4 sequence (O75469 whole entry)

[6] = target: T6, Nuclear receptor ROR-beta (Homo sapiens, UniProt Q92753); test: Inverse agonist activity at human Gal4-fused RORbeta LBD (200 to 559 residues) expressed in human Jurkat cells measured after 18 hrs by steady-glo luciferase reporter gene assay; type: cell-based
T6 sequence (Q92753 whole entry): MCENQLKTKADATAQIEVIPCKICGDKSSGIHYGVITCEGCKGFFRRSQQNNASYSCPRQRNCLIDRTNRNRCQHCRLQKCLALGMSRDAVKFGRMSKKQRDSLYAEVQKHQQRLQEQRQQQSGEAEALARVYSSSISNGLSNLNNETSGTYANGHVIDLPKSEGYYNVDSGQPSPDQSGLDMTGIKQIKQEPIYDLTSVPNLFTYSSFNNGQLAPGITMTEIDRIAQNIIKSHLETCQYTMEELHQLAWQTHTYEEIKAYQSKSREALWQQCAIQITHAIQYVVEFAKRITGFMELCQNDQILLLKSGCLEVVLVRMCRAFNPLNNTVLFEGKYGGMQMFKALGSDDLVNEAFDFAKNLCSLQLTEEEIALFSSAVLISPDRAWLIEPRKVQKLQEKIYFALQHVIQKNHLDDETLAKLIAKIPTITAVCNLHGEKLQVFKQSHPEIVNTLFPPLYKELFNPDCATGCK

[7] = target: T7, Oxysterols receptor LXR-alpha (Homo sapiens, UniProt Q13133); test: Transactivation of human GAL4-fused LXRalpha expressed in African green monkey CV1 cells; type: cell-based
T7 sequence (Q13133 whole entry): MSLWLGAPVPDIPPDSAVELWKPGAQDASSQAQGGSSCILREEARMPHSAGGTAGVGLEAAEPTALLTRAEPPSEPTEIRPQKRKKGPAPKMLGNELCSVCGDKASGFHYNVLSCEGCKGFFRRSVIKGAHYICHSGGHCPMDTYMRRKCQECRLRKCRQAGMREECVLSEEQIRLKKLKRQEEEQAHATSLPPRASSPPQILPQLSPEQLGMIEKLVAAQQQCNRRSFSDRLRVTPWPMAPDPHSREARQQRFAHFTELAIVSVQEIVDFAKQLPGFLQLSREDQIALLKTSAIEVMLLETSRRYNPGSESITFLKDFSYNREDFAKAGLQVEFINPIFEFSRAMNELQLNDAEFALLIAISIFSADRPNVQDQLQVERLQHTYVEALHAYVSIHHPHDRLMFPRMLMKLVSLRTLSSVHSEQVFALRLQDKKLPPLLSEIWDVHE

[8] = Stability in human liver microsomes assessed as parent compound remaining after 10 mins; type: ADME, Microsome; settings: liver microsomes, read-out: Stability
[9] = target: T4, Nuclear receptor subfamily 1 group I member 2; test: as §1; type: cell-based; settings: hepg2

Row | SMILES | remaining at 10 min [1] [%] | EC50 [2] [µM] | EC50 [3] [µM] | EC50 [4] [µM] | EC50 [5] [µM] | Emax (PXR) [%] | EC50 [6] [µM] | EC50 [7] [µM] | remaining at 10 min [8] [%] | %max [9] [%]
1 | C[C@]1(C(=O)N2CC[C@](c3ccc(C(F)(C(F)(F)F)C(F)(F)F)cc3)(S(=O)(=O)c3ccc(F)cc3)C2)CC[C@H](C(=O)O)CC1 | 95 | > 7.5 | 0.056 | > 40 | > 50 | 7 | > 40 | > 7.5 | 80 | 
2 | C[C@]1(C(=O)N2CC[C@](c3ccc(C(F)(C(F)(F)F)C(F)(F)F)cc3)(S(=O)(=O)c3ccc(F)cc3)C2)CC[C@@H](C(=O)O)CC1 | 100 | > 7.5 | 0.776 | > 40 | > 50 | 18 | > 40 | > 7.5 | 85 | 
3 | CS(=O)(=O)C1CCC(C(=O)N2CC[C@](c3ccc(C(F)(C(F)(F)F)C(F)(F)F)cc3)(S(=O)(=O)c3ccc(F)cc3)C2)CC1 (stereo in doubt; 28) | 69 | > 7.5 |  | > 40 | 1.8 |  | > 40 | > 7.5 | 88 | 29
